Tested on: Metabolism protein genes
Assay: DNA chip mRNA expression in yeast, metabolism protein genes (Table 7)
Type: cell-based, Saccharomyces cerevisiae S288C
Summary of the method: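 Value is the scanned fluorescence intensity ratio of exposed versus chemical-free cells. Log-phase S288C yeast in YPD at 25° C. received one toxic substance for two hours, dosed to slow growth without killing; Cy3/Cy5-labeled cDNA from oligo-dT-purified mRNA was hybridized to a whole-genome chip at 65° C.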

## manganese ethylenebis(dithiocarbamate) [(8)]
Yeast gene YJR155W
  The level of expressed mRNA in the presence of chemical substance/The level of expressed mRNA in the absence of chemical substance: 10.6
Yeast gene YKL035W
  The level of expressed mRNA in the presence of chemical substance/The level of expressed mRNA in the absence of chemical substance: 1.0
Yeast gene YKL060C
  level of expressed mRNA in the presence/in the absence of chemical substance: 1.1
Yeast gene YKL091C
  The level of expressed mRNA in the presence of chemical substance/The level of expressed mRNA in the absence of chemical substance: 1.3
Yeast gene YKL104C
  The level of expressed mRNA in the presence of chemical substance/The level of expressed mRNA in the absence of chemical substance: 1.1
Yeast gene YKL148C
  level of expressed mRNA in the presence/in the absence of chemical substance: 0.8
Yeast gene YKL152C
  The level of expressed mRNA in the presence of chemical substance/The level of expressed mRNA in the absence of chemical substance: 1.0
Yeast gene YKL157W
  level of expressed mRNA in the presence/in the absence of chemical substance: 1.1
Yeast gene YKL213C
  The level of expressed mRNA in the presence of chemical substance/The level of expressed mRNA in the absence of chemical substance: 1.1
Yeast gene YKL215C
  The level of expressed mRNA in the presence of chemical substance/The level of expressed mRNA in the absence of chemical substance: 1.1
Yeast gene YKR034W
  level of expressed mRNA in the presence/in the absence of chemical substance: 1.5
Yeast gene YLL058W
  The level of expressed mRNA in the presence of chemical substance/The level of expressed mRNA in the absence of chemical substance: 0.9
Yeast gene YLR006C
  level of expressed mRNA in the presence/in the absence of chemical substance: 0.9
Yeast gene YLR044C
  level of expressed mRNA in the presence/in the absence of chemical substance: 0.7
Yeast gene YLR056W
  level of expressed mRNA in the presence/in the absence of chemical substance: 0.9
Yeast gene YLR058C
  level of expressed mRNA in the presence/in the absence of chemical substance: 0.3
Yeast gene YLR081W
  level of expressed mRNA in the presence/in the absence of chemical substance: 0.9
Yeast gene YLR089C
  level of expressed mRNA in the presence/in the absence of chemical substance: 0.7
Yeast gene YLR180W
  The level of expressed mRNA in the presence of chemical substance/The level of expressed mRNA in the absence of chemical substance: 0.9
Yeast gene YLR273C
  The level of expressed mRNA in the presence of chemical substance/The level of expressed mRNA in the absence of chemical substance: 1.3
Yeast gene YLR284C
  level of expressed mRNA in the presence/in the absence of chemical substance: 1.2
Yeast gene YLR299W
  The level of expressed mRNA in the presence of chemical substance/The level of expressed mRNA in the absence of chemical substance: 1.0
Yeast gene YLR300W
  The level of expressed mRNA in the presence of chemical substance/The level of expressed mRNA in the absence of chemical substance: 0.8
Yeast gene YLR304C
  level of expressed mRNA in the presence/in the absence of chemical substance: 0.6
Yeast gene YLR307W
  The level of expressed mRNA in the presence of chemical substance/The level of expressed mRNA in the absence of chemical substance: 1.2
Yeast gene YLR348C
  The level of expressed mRNA in the presence of chemical substance/The level of expressed mRNA in the absence of chemical substance: 0.9
Yeast gene YLR354C
  level of expressed mRNA in the presence/in the absence of chemical substance: 1.4
Yeast gene YLR372W
  level of expressed mRNA in the presence/in the absence of chemical substance: 0.9
Yeast gene YML022W
  level of expressed mRNA in the presence/in the absence of chemical substance: 1.1
Yeast gene YML054C
  The level of expressed mRNA in the presence of chemical substance/The level of expressed mRNA in the absence of chemical substance: 1.5
Yeast gene YML070W
  The level of expressed mRNA in the presence of chemical substance/The level of expressed mRNA in the absence of chemical substance: 1.3
Yeast gene YML100W
  The level of expressed mRNA in the presence of chemical substance/The level of expressed mRNA in the absence of chemical substance: 0.7
Yeast gene YMR008C
  The level of expressed mRNA in the presence of chemical substance/The level of expressed mRNA in the absence of chemical substance: 0.5
Yeast gene YMR011W
  level of expressed mRNA in the presence/in the absence of chemical substance: 1.1
Yeast gene YMR015C
  level of expressed mRNA in the presence/in the absence of chemical substance: 0.7
Yeast gene YMR020W
  The level of expressed mRNA in the presence of chemical substance/The level of expressed mRNA in the absence of chemical substance: 1.2
Yeast gene YMR083W
  level of expressed mRNA in the presence/in the absence of chemical substance: 1.1
Yeast gene YMR105C
  The level of expressed mRNA in the presence of chemical substance/The level of expressed mRNA in the absence of chemical substance: 1.1
Yeast gene YMR189W
  The level of expressed mRNA in the presence of chemical substance/The level of expressed mRNA in the absence of chemical substance: 0.4
Yeast gene YMR205C
  level of expressed mRNA in the presence/in the absence of chemical substance: 0.7
Yeast gene YMR261C
  level of expressed mRNA in the presence/in the absence of chemical substance: 0.7
Yeast gene YMR271C
  The level of expressed mRNA in the presence of chemical substance/The level of expressed mRNA in the absence of chemical substance: 1.8
Yeast gene YMR296C
  The level of expressed mRNA in the presence of chemical substance/The level of expressed mRNA in the absence of chemical substance: 0.5
Yeast gene YMR323W
  level of expressed mRNA in the presence/in the absence of chemical substance: 0.8
Yeast gene YNL012W
  The level of expressed mRNA in the presence of chemical substance/The level of expressed mRNA in the absence of chemical substance: 1.8
Yeast gene YNL025C
  level of expressed mRNA in the presence/in the absence of chemical substance: 1.0
Yeast gene YNL045W
  The level of expressed mRNA in the presence of chemical substance/The level of expressed mRNA in the absence of chemical substance: 0.7
Yeast gene YNL104C
  The level of expressed mRNA in the presence of chemical substance/The level of expressed mRNA in the absence of chemical substance: 0.9
Yeast gene YNL106C
  The level of expressed mRNA in the presence of chemical substance/The level of expressed mRNA in the absence of chemical substance: 0.8
Yeast gene YNL169C
  The level of expressed mRNA in the presence of chemical substance/The level of expressed mRNA in the absence of chemical substance: 0.8
Yeast gene YNL192W
  level of expressed mRNA in the presence/in the absence of chemical substance: 0.8
Yeast gene YNL231C
  The level of expressed mRNA in the presence of chemical substance/The level of expressed mRNA in the absence of chemical substance: 1.5
Yeast gene YNL322C
  The level of expressed mRNA in the presence of chemical substance/The level of expressed mRNA in the absence of chemical substance: 0.7
Yeast gene YNL331C
  The level of expressed mRNA in the presence of chemical substance/The level of expressed mRNA in the absence of chemical substance: 13.1
Yeast gene YNL332W
  The level of expressed mRNA in the presence of chemical substance/The level of expressed mRNA in the absence of chemical substance: 1.5
Yeast gene YNR019W
  The level of expressed mRNA in the presence of chemical substance/The level of expressed mRNA in the absence of chemical substance: 0.7
Yeast gene YNR033W
  The level of expressed mRNA in the presence of chemical substance/The level of expressed mRNA in the absence of chemical substance: 1.1
Yeast gene YNR059W
  The level of expressed mRNA in the presence of chemical substance/The level of expressed mRNA in the absence of chemical substance: 1.3
Yeast gene YOL058W
  The level of expressed mRNA in the presence of chemical substance/The level of expressed mRNA in the absence of chemical substance: 1.6
Yeast gene YOL086C
  level of expressed mRNA in the presence/in the absence of chemical substance: 0.8
Yeast gene YOL108C
  level of expressed mRNA in the presence/in the absence of chemical substance: 1.3
Yeast gene YOL116W
  level of expressed mRNA in the presence/in the absence of chemical substance: 1.3
Yeast gene YOL126C
  The level of expressed mRNA in the presence of chemical substance/The level of expressed mRNA in the absence of chemical substance: 0.9
Yeast gene YOL153C
  The level of expressed mRNA in the presence of chemical substance/The level of expressed mRNA in the absence of chemical substance: 1.0
Yeast gene YOL156W
  level of expressed mRNA in the presence/in the absence of chemical substance: 1.0
Yeast gene YOL165C
  The level of expressed mRNA in the presence of chemical substance/The level of expressed mRNA in the absence of chemical substance: 17.8
Yeast gene YOR002W
  level of expressed mRNA in the presence/in the absence of chemical substance: 0.9
Yeast gene YOR085W
  level of expressed mRNA in the presence/in the absence of chemical substance: 0.7
Yeast gene YOR099W
  The level of expressed mRNA in the presence of chemical substance/The level of expressed mRNA in the absence of chemical substance: 0.9
Yeast gene YOR103C
  level of expressed mRNA in the presence/in the absence of chemical substance: 1.0
Yeast gene YOR108W
  level of expressed mRNA in the presence/in the absence of chemical substance: 0.9
Yeast gene YOR128C
  level of expressed mRNA in the presence/in the absence of chemical substance: 0.6
Yeast gene YOR130C
  The level of expressed mRNA in the presence of chemical substance/The level of expressed mRNA in the absence of chemical substance: 0.8
Yeast gene YOR142W
  level of expressed mRNA in the presence/in the absence of chemical substance: 0.8
Yeast gene YOR176W
  level of expressed mRNA in the presence/in the absence of chemical substance: 1.0
Yeast gene YOR178C
  level of expressed mRNA in the presence/in the absence of chemical substance: 0.9
Yeast gene YOR251C
  level of expressed mRNA in the presence/in the absence of chemical substance: 1.1
Yeast gene YOR336W
  The level of expressed mRNA in the presence of chemical substance/The level of expressed mRNA in the absence of chemical substance: 0.8
Yeast gene YOR347C
  The level of expressed mRNA in the presence of chemical substance/The level of expressed mRNA in the absence of chemical substance: 0.8
Yeast gene YOR348C
  level of expressed mRNA in the presence/in the absence of chemical substance: 0.8
Yeast gene YPL017C
  The level of expressed mRNA in the presence of chemical substance/The level of expressed mRNA in the absence of chemical substance: 1.3
Yeast gene YPL028W
  level of expressed mRNA in the presence/in the absence of chemical substance: 0.9
Yeast gene YPL057C
  level of expressed mRNA in the presence/in the absence of chemical substance: 1.0
Yeast gene YPL135W
  level of expressed mRNA in the presence/in the absence of chemical substance: 1.0
Yeast gene YPL148C
  level of expressed mRNA in the presence/in the absence of chemical substance: 0.9
Yeast gene YPR026W
  The level of expressed mRNA in the presence of chemical substance/The level of expressed mRNA in the absence of chemical substance: 1.0
Yeast gene YPR113W
  level of expressed mRNA in the presence/in the absence of chemical substance: 0.9
Yeast gene YPR165W
  level of expressed mRNA in the presence/in the absence of chemical substance: 1.0
Yeast gene YPR167C
  The level of expressed mRNA in the presence of chemical substance/The level of expressed mRNA in the absence of chemical substance: 5.5
Yeast gene YPR183W
  level of expressed mRNA in the presence/in the absence of chemical substance: 1.0
